pIC50: −log10 of the molar value. Bounds are passed on as bounds.

The test system of assay [1] is phospho-cdc2 (Tyr15) in HT-29 cells. Kind of assay: Effect on phosphorylation of cdc2 at Tyr15 in HT-29 cells (PathScan ELISA). It is filed as cell-based. The following applies: Homo sapiens, HT-29, 8 h; HT29 cells, eight hours incubation; read-out: HT29 pCDC2 activity. Background: ELISA stands for enzyme-linked immunosorbent assay.
The target in assay [2] is AMPK A1/B1/G1 (Homo sapiens (Human), UniProt Q13131). Kind of assay: SelectScreen Kinase Profiling: AMPK. The assay is classed as biochemical. The following applies: 300-350 nM. The source says:
(§1) Table 2 below highlights the selectivity of a representative compound of the invention against a panel of 50 kinases (assessed using the Invitrogen SelectScreen® Kinase Profiling Service).

For assay [3], the target named is BTK (Homo sapiens (Human), UniProt Q06187). Kind of assay: SelectScreen Kinase Profiling: BTK. The assay is classed as biochemical. The following applies: 300-350 nM.
Source text: as §1

In assay [4] the target is CSNK1G2 (CK1 gamma 2) (Homo sapiens (Human), UniProt P78368). Kind of assay: SelectScreen Kinase Profiling: CSNK1G2. It is filed as biochemical. The following applies: 300-350 nM.
Source text: as §1

Assay [5] addresses DYRK3 (Homo sapiens (Human), UniProt O43781). Kind of assay: SelectScreen Kinase Profiling: DYRK3. The assay is classed as biochemical. Conditions: 300-350 nM.
Source text: as §1

Assay [6] has as its target EGFR (ErbB1) (Homo sapiens (Human), UniProt P00533). Put plainly: SelectScreen Kinase Profiling: EGFR. It is filed as biochemical. Conditions: 300-350 nM.
Assay [7] concerns the target EPHA2 (Homo sapiens (Human), UniProt P29317). Put plainly: SelectScreen Kinase Profiling: EPHA2. It is filed as biochemical. Conditions: 300-350 nM.
Source text: as §1

Assay [8] concerns the target FLT3 (Homo sapiens (Human), UniProt P36888). Put plainly: SelectScreen Kinase Profiling: FLT3. Conditions: 300-350 nM. The assay is classed as biochemical.
Source text: as §1

The target in assay [9] is GSK3B (GSK3 beta) (Homo sapiens (Human), UniProt P49841). Put plainly: SelectScreen Kinase Profiling: GSK3B. The assay is classed as biochemical. The following applies: 300-350 nM.
Source text: as §1

Assay [10] deals with IGF1R (Homo sapiens (Human), UniProt P08069). Kind of assay: SelectScreen Kinase Profiling: IGF1R. Conditions: 300-350 nM. The assay is classed as biochemical.
Source text: as §1

For assay [11], the target named is INSR (Homo sapiens (Human), UniProt P06213). Kind of assay: SelectScreen Kinase Profiling: INSR. It is filed as biochemical. Conditions: 300-350 nM.
Source text: as §1

Assay [12] concerns the target JAK3 (Homo sapiens (Human), UniProt P52333). Put plainly: SelectScreen Kinase Profiling: JAK3. It is filed as biochemical. Conditions: 300-350 nM.
Source text: as §1

The target of assay [13] is KIT (Homo sapiens (Human), UniProt P10721). Kind of assay: SelectScreen Kinase Profiling: KIT. Conditions: 300-350 nM. The assay is classed as biochemical.
Source text: as §1

Assay [14] concerns the target LCK (Homo sapiens (Human), UniProt P06239). Put plainly: SelectScreen Kinase Profiling: LCK. The assay is classed as biochemical. The following applies: 300-350 nM.
Source text: as §1

Assay [15] concerns the target MAPK1 (ERK2) (Homo sapiens (Human), UniProt P28482). Kind of assay: SelectScreen Kinase Profiling: MAPK1. It is filed as biochemical. Conditions: 300-350 nM.
Source text: as §1

The target of assay [16] is MAPK14 (p38 alpha) (Homo sapiens (Human), UniProt Q16539). Put plainly: SelectScreen Kinase Profiling: MAPK14. The following applies: 300-350 nM. The assay is classed as biochemical.
Source text: as §1

For assay [17], the target named is MAPKAPK2 (Homo sapiens (Human), UniProt P49137). Put plainly: SelectScreen Kinase Profiling: MAPKAPK2. The assay is classed as biochemical. The following applies: 300-350 nM.
Source text: as §1

Assay [18] deals with MARK2 (Homo sapiens (Human), UniProt Q7KZI7). Put plainly: SelectScreen Kinase Profiling: MARK2. It is filed as biochemical. Conditions: 300-350 nM.
Source text: as §1

Assay [19] addresses NEK1 (Homo sapiens (Human), UniProt Q96PY6). Put plainly: SelectScreen Kinase Profiling: NEK1. The following applies: 300-350 nM. It is filed as biochemical.
Source text: as §1

In assay [20] the target is PIM1 (Homo sapiens (Human), UniProt P11309). Kind of assay: SelectScreen Kinase Profiling: PIM1. It is filed as biochemical. Conditions: 300-350 nM.
Source text: as §1

Assay [21] has as its target PRKCB1 (PKC beta I) (Homo sapiens (Human), UniProt P05771). Put plainly: SelectScreen Kinase Profiling: PRKCB1. The following applies: 300-350 nM. The assay is classed as biochemical.
Source text: as §1

Assay [22] deals with RET (Homo sapiens (Human), UniProt P07949). Put plainly: SelectScreen Kinase Profiling: RET. Conditions: 300-350 nM. The assay is classed as biochemical.
Source text: as §1

Assay [23] addresses RPS6KA3 (RSK2) (Homo sapiens (Human), UniProt P51812). Kind of assay: SelectScreen Kinase Profiling: RPS6KA3. The assay is classed as biochemical. The following applies: 300-350 nM.
Assay [24] deals with SYK (Homo sapiens (Human), UniProt P43405). Put plainly: SelectScreen Kinase Profiling: SYK. It is filed as biochemical. The following applies: 300-350 nM.
Source text: as §1

Sequence of MARK2 (Q7KZI7 whole entry): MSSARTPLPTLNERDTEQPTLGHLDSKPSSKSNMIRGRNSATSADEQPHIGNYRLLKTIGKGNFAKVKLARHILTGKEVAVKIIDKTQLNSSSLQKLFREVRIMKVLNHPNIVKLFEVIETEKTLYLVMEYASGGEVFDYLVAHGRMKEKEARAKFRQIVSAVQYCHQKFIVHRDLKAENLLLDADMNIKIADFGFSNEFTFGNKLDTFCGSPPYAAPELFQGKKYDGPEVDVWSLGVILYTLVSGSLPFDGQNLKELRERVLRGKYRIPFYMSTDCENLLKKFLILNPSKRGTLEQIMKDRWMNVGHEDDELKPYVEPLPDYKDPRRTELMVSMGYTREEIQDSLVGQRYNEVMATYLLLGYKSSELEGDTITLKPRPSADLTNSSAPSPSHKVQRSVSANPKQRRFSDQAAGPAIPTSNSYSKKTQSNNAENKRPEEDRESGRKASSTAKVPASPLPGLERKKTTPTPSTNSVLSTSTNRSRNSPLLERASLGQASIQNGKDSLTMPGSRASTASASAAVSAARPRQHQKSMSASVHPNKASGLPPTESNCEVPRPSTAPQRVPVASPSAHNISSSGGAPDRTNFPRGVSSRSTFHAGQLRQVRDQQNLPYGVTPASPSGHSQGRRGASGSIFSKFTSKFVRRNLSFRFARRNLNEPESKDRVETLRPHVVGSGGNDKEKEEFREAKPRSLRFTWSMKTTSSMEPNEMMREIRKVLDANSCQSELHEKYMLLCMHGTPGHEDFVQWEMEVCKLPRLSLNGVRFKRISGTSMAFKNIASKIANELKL
Sequence of DYRK3 (O43781 whole entry): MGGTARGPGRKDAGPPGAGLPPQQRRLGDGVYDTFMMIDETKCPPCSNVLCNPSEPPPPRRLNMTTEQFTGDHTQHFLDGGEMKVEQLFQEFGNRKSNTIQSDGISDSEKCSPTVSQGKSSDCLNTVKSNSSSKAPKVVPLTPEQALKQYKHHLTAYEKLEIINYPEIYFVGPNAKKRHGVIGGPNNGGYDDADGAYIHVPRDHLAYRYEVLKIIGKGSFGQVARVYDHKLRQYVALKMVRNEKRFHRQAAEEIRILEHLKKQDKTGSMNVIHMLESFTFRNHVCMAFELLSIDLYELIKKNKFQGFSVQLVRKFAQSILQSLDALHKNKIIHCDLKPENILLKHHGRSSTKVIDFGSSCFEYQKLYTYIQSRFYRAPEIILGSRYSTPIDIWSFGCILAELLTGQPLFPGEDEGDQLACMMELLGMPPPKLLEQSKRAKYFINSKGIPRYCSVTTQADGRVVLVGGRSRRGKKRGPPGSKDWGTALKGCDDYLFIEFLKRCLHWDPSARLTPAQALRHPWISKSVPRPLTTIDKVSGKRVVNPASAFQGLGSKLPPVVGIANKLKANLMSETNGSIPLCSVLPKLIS
Sequence of PIM1 (P11309 whole entry): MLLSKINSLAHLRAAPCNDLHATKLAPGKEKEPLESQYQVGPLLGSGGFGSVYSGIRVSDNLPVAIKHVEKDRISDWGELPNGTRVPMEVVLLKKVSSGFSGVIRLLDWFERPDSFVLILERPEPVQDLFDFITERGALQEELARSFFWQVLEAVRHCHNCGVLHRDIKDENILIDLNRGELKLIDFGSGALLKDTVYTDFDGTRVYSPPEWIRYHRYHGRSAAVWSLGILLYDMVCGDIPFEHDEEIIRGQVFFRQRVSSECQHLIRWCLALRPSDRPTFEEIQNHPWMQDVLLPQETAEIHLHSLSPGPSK
Sequence of MAPK1 (ERK2) (P28482 whole entry): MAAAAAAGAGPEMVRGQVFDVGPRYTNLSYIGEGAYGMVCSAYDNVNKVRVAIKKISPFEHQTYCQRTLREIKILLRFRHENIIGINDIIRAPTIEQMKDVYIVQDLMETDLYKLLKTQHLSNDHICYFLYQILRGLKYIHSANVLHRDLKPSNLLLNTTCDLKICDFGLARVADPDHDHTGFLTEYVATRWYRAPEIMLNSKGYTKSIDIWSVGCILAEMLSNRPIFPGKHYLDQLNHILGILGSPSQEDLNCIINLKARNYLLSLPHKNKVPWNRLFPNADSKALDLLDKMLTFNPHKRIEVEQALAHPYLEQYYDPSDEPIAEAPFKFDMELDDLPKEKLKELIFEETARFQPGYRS
Sequence of PRKCB1 (PKC beta I) (P05771 whole entry): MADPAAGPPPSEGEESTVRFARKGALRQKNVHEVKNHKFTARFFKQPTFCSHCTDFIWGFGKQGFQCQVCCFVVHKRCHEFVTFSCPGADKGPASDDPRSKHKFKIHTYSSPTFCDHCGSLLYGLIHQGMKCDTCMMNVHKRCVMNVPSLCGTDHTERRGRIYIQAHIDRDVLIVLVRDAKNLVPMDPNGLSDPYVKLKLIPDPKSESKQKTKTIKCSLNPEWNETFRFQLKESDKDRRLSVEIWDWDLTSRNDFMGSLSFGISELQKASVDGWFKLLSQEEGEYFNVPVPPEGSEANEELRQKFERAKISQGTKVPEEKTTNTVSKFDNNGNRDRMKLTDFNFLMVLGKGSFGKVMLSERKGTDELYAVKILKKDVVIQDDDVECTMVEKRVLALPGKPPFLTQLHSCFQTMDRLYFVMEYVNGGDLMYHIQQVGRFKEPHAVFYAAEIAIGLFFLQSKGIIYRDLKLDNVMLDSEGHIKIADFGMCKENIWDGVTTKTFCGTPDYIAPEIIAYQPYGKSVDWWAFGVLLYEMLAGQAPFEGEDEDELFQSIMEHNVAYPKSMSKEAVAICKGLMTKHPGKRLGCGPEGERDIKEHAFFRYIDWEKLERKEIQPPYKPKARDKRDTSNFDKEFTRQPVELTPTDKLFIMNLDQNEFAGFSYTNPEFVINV
Sequence of IGF1R (P08069 31-1367): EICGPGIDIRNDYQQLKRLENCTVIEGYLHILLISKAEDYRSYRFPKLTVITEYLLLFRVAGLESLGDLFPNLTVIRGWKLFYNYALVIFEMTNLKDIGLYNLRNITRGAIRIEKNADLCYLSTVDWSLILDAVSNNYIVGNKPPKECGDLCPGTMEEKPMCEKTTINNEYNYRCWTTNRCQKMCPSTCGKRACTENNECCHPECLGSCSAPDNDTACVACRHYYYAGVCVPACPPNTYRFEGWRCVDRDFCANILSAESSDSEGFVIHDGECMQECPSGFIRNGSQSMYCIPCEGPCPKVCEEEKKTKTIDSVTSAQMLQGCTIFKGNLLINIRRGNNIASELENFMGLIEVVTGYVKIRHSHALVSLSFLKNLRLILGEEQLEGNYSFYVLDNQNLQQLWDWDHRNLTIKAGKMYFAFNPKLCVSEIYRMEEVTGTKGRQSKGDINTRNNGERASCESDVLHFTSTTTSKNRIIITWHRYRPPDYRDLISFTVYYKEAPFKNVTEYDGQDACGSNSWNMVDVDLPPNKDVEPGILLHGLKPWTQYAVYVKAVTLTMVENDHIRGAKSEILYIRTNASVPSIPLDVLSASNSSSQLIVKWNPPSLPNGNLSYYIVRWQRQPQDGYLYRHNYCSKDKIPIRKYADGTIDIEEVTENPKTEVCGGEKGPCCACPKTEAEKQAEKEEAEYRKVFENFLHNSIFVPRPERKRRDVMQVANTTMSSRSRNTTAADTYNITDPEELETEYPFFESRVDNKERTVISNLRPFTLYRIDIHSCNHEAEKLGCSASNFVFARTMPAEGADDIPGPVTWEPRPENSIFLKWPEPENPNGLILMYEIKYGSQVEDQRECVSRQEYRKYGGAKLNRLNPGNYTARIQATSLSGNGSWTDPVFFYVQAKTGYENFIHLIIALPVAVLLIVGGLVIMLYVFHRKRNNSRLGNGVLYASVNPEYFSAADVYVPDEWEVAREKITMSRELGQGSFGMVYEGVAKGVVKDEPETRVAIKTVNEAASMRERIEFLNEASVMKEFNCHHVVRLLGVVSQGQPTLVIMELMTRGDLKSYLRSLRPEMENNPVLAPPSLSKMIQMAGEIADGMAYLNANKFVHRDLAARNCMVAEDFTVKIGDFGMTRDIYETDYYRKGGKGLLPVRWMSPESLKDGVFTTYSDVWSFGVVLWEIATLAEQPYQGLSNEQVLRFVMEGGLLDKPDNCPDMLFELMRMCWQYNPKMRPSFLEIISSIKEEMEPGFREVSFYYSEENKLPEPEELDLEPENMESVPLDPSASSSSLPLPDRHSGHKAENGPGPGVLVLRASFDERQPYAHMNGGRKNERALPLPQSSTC
Sequence of EPHA2 (P29317 24-976): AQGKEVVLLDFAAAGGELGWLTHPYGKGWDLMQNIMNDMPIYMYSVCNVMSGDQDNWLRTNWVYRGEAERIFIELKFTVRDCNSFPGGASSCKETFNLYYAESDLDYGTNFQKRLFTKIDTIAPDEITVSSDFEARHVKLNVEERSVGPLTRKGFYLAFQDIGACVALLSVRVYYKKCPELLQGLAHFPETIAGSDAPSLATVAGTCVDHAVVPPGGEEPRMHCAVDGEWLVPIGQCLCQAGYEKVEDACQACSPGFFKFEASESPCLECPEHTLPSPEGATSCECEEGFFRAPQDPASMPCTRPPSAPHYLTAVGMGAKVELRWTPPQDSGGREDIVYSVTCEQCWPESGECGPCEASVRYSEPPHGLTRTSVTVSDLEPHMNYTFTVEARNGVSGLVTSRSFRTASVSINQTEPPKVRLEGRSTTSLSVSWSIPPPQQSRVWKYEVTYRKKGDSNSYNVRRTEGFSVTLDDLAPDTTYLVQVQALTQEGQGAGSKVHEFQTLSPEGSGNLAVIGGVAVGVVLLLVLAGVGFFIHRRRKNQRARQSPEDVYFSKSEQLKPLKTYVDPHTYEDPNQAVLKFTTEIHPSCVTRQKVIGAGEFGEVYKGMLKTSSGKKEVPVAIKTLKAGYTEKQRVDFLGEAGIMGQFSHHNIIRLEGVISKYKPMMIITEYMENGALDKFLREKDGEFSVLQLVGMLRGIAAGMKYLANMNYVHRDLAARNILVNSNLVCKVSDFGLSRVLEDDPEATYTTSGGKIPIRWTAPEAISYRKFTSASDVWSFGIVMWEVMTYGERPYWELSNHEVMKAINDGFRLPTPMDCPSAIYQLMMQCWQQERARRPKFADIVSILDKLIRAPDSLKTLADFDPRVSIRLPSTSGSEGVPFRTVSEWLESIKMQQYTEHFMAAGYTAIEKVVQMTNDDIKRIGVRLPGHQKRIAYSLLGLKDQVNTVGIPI

As for `O=c1c2cnc(Nc3ccc(N4CCNCC4)cc3)nc2ccn1-c1c(Cl)cccc1Cl` [Example 1, 6-(2,6-Dichlorophenyl)-2-((4-(piperazin-1-yl)phenyl)amino)pyrido[4,3-d]pyrimidin-5(6H)-one], the pIC50 in assay [1] is at most 6.00. Also, in assay [2], the “Inhibition AMPK A1/B1/G1” value is on record as “− (Inhibition <75% @ 300-350 nM)”. Besides, the “Inhibition BTK” value in assay [3] was “− (Inhibition <75% @ 300-350 nM)”. Also, the “Inhibition CSNK1G2 (CK1 gamma 2)” value in [4] is “− (Inhibition <75% @ 300-350 nM)”. Further, the “Inhibition DYRK3” value in [5] was “− (Inhibition <75% @ 300-350 nM)”. Also, the “Inhibition EGFR (ErbB1)” value in assay [6] is given as “− (Inhibition <75% @ 300-350 nM)”. Besides, in assay [7], the “Inhibition EPHA2” value is “− (Inhibition <75% @ 300-350 nM)”. Further, the “Inhibition FLT3” value in [8] is given as “− (Inhibition <75% @ 300-350 nM)”. Moreover, in assay [9], the “Inhibition GSK3B (GSK3 beta)” value was “− (Inhibition <75% @ 300-350 nM)”. For the same molecule, in assay [10], the “Inhibition IGF1R” value is “− (Inhibition <75% @ 300-350 nM)”. Further, the “Inhibition INSR” value in assay [11] is “− (Inhibition <75% @ 300-350 nM)”. The “Inhibition JAK3” value in [12] is on record as “− (Inhibition <75% @ 300-350 nM)”. Moreover, in assay [13], the “Inhibition KIT” value was “− (Inhibition <75% @ 300-350 nM)”. In [14], the “Inhibition LCK” value is given as “− (Inhibition <75% @ 300-350 nM)”. In [15], the “Inhibition MAPK1 (ERK2)” value is on record as “− (Inhibition <75% @ 300-350 nM)”. Further, the “Inhibition MAPK14 (p38 alpha)” value in assay [16] is given as “− (Inhibition <75% @ 300-350 nM)”. Further, in assay [17], the “Inhibition MAPKAPK2” value is reported as “− (Inhibition <75% @ 300-350 nM)”. The “Inhibition MARK2” value in [18] was “− (Inhibition <75% @ 300-350 nM)”. The “Inhibition NEK1” value in [19] is given as “− (Inhibition <75% @ 300-350 nM)”. The “Inhibition PIM1” value in [20] is given as “− (Inhibition <75% @ 300-350 nM)”. Besides, the “Inhibition PRKCB1 (PKC beta I)” value in [21] was “− (Inhibition <75% @ 300-350 nM)”. Further, the “Inhibition RET” value in assay [22] is reported as “− (Inhibition <75% @ 300-350 nM)”. Moreover, the “Inhibition RPS6KA3 (RSK2)” value in assay [23] is listed as “− (Inhibition <75% @ 300-350 nM)”. For the same molecule, the “Inhibition SYK” value in assay [24] is on record as “− (Inhibition <75% @ 300-350 nM)”.

(Values after patent US9714244B2, “Substituted pyrido[4,3-d]pyrimidines as Wee-1 inhibitors” (ALMAC DISCOVERY LIMITED, priority 2013, dated 2017).)
